Patent publication US7312344B2, “Dimeric isoflavones” (Novogen Research Pty Limited, priority 2001, dated 2007)
Where two headings read alike, the source gives them in different places.

What was measured:
prostate (PC3) = experiment: Cell cytotoxicity assay (MTT), PC3; format: cell-based, human; conditions: read-out: Cell Line IC50 PC3
Method: (§1) The anticancer potential of the tetraphenolic dimer (Structure 3) and the tetraacetoxy dimer (Structure 2) was assessed using a panel of human tumour cell lines, including glioma (C6), prostate (PC3), breast (MCF-7), soft tissue (Kym-1) and lung (NCI-H23 and NCI-H460). The cell cytotoxicity assay was conducted as per the method of Alley et al., 1988. Cell lines are exposed to varying concentrations of test compound for a fixed time. At the conclusion of the assay, the viability of the cell population is determined using the hydrogen acceptor reagent 3-(4,5-dimethylthiazol-2-yl)-2,5 diphenyltetrazolium bromide (MTT). The concentration of compound required to inhibit 50% of cell growth in comparison to a control (IC50) is an indicator of effectiveness of the compound. (i.e. the lower the concentration of compound required to inhibit 50% of normal cell proliferation, the more efficacious).

[1] = target: T1, recombinant human estrogen receptors-alpha (ER-α) (Homo sapiens, UniProt P03372); experiment: Estrogen receptor competitive binding assay (fluorescence polarization kit), ER-α
T1 construct: purchased
T1 sequence (P03372 1-595): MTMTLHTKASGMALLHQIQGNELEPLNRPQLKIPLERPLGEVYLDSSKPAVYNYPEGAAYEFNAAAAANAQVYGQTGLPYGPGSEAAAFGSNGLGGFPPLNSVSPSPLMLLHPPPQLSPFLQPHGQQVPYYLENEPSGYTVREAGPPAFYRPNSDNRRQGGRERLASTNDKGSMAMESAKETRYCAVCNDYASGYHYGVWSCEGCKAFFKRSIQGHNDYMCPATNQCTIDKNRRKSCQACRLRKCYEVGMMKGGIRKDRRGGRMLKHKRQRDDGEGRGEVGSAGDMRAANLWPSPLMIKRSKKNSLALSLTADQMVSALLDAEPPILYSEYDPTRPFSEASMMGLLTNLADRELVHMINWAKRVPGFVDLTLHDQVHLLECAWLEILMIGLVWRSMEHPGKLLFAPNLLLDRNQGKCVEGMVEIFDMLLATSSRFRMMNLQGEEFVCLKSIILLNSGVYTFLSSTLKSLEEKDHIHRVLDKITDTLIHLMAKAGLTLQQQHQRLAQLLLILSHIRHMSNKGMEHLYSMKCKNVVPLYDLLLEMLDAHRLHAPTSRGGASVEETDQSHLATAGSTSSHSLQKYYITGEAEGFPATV
Method: (§2) The ability of the tetraphenolic dimer (Structure 3) and tetraacetoxy dimer (Structure 2) to interact with estrogen receptor alpha and beta was determined using a commercially available estrogen receptor binding kit. This kit employs a competitive binding assay to determine the relative binding affinity of test compounds for recombinant human estrogen receptors-alpha (ER-α) and beta (ER-β). […] The complex is then added to decreasing concentrations of competitor test compounds. The shift in polarization in the presence of test compound is used to determine the relative affinity of test compounds for the estrogen receptor.

lung (NCI-H23) = experiment: Cell cytotoxicity assay (MTT), NCI-H23; format: cell-based, human; conditions: read-out: Cell Line IC50 NCI-H23
Method: as §1

breast (MCF-7) = experiment: Cell cytotoxicity assay (MTT), MCF-7; format: cell-based, human
Method: as §1

[2] = target: T2, recombinant human estrogen receptor beta (ER-β) (Homo sapiens, UniProt Q92731); experiment: Estrogen receptor competitive binding assay (fluorescence polarization kit), ER-β
T2 construct: purchased
Method: as §2

lung (NCI-H460) = experiment: Cell cytotoxicity assay (MTT), NCI-H460; format: cell-based; conditions: Homo sapiens, read-out: Cell Line IC50 NCI-H460
Method: as §1

soft tissue (Kym-1) = experiment: Cell cytotoxicity assay (MTT), Kym-1; format: cell-based; conditions: Homo sapiens, read-out: Cell Line IC50 Kym-1
Method: as §1

glioma (C6) = experiment: Cell cytotoxicity assay (MTT), C6 glioma; format: cell-based, human; conditions: Rattus norvegicus, read-out: Cell Line IC50 C6 Glioma
Method: as §1

T2 sequence (Q92731 whole entry): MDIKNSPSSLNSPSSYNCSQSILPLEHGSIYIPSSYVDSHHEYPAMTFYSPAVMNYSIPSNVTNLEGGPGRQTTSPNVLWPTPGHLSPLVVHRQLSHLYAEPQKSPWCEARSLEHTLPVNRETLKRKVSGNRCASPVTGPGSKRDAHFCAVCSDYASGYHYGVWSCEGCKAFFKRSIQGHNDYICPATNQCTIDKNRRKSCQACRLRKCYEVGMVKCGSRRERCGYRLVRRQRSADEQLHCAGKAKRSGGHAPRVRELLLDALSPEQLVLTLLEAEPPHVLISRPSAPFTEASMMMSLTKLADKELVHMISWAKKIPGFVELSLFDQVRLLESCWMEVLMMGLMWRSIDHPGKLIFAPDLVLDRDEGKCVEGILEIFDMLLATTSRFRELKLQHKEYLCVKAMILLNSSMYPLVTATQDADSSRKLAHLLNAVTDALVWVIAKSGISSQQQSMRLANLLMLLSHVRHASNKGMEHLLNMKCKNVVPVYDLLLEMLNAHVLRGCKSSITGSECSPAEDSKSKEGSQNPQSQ

Row | SMILES | IC50 (prostate (PC3)) [µM] | binding to ER-α (in words) [1] | IC50 (lung (NCI-H23)) [µM] | IC50 (breast (MCF-7); read-out: Cell Line IC50 MCF-7) [µM] | binding to ER-β (in words) [2] | IC50 (prostate (PC3); Homo sapiens) [µM] | IC50 (lung (NCI-H460)) [µM] | IC50 (soft tissue (Kym-1)) [µM] | EC50 ([1]; read-out: concentration required to displace 50% of bound fluorescent estrogen ligand (EC50), ER-alpha) [nM] | IC50 (lung (NCI-H23); Homo sapiens) [µM] | IC50 (glioma (C6)) [µM] | IC50 (breast (MCF-7); Homo sapiens, MCF7, read-out: Cell Line IC50 MCF-7) [µM] | EC50 ([2]; read-out: concentration required to displace 50% of bound fluorescent estrogen ligand (EC50), ER-beta) [nM]
1 | CC(=O)Oc1ccc(C2=Cc3cc(C4c5ccc(OC(C)=O)cc5OCC4c4ccc(OC(C)=O)cc4)c(OC(C)=O)cc3OC2)cc1 (stereo not shown) [Structure 2, Tetraacetoxy 6-(4-(isoflavan-4′,7-diol))-isoflav-3-ene-4′,7-diol] | 6 | did not bind | 7.3 | 10 ± 5 | did not bind | – | – | – | – | – | – | – | –
2 | Oc1ccc(C2=Cc3cc(C4c5ccc(O)cc5OCC4c4ccc(O)cc4)c(O)cc3OC2)cc1 (stereo not shown) [Structure 3, 6-(4-(Isoflavan-4′,7-diol))-isoflav-3-ene-4′,7-diol] | – | – | – | – | – | 13.5 | 14.4 | 3.2 | 350 ± 50 | 13.5 | 17.5 | 18 ± 2 | 370 ± 50
